Assay results taken from patent publication US4062964A, “Antifertility-combinations” (Ciba-Geigy Corporation, priority 1976, dated 1977).
Where two headings read alike, the source gives them in different places.

Columns and labels:
pregnant rats [1] = assay: Resorption of embryos by s.c. prostaglandins in pregnant rats; assay type: in vivo, rat; conditions: for Fetuses / Resorptions / Total Implants: days 4-7
Method: (§1) The efficacy of the compositions according to the invention is demonstrable in animal tests, using advantageously mammals, such as rats, hamsters or baboons, as test objects. Thus, for example, adult female rats weighing 190-250 grams are housed in a "reverse room" as described in Contraception 3, 347 (1971), with the exception that the animals have 14 hours of light between 5 P.M. and 7 A.M., and 10 hours of darkness from 7 A.M. to 5 P.M. They are placed with adult male rats from 10 A.M. to 2 P.M. (i.e. "their midnight" ± 2 hours) following which vaginal smears are obtained.
(§2) Said antifertility compounds may be administered orally, e.g. in suspension with the excipient compraising 3% (by weight) of carboxymethylcellulose, 1.05% methylcellulose, 0.8% sodium chloride, 0.1% polysorbate 80 and 0.002% thimerosal in water, as a single dose on day 5 of pregnancy (i.e. the day after implantation unless otherwise specified). Prostaglandins may be injected subcutaneously twice (9 A.M. and 3 P.M.) on days 4-7 in a conventional 0.1M phosphate buffer at pH = 7.45. Aminoglutethimide phosphate can also be administered in aqueous solution orally, subcutaneously, intraperitoneally or intravenously. The rats are sacrificed on day 10 or 11 of pregnancy and the uterus is examined for living and dead fetuses and implantation sites. The terms "abortion" and "resorption" are used interchangeably because by day 10 or 11 the uterine scars resulting from either event are indistinguishable by gross inspection.
However, when the compounds were injected twice daily (9 a.m. and 3 p.m.) in adequate doses on days 4-7 of gestation, implantation occured at the normal time but this was then followed by resorption of the embryos. […]

pregnant rats [2] = assay: Combined treatment AGP and PGF2α, resorption of fetuses in pregnant rats; assay type: in vivo, rat
Method: as §1, §2

pregnant rats [3] = assay: Abortifacient activity of AGP in pregnant rats (3 doses on day 9; large single or daily oral doses); assay type: in vivo, rat
Method: as §1, §2

progesterone levels = assay: Progesterone levels in rats after aminoglutethimide phosphate; assay type: in vivo, rat; conditions: large single or daily oral doses
rabbits = assay: Activity of TPF in rabbits; conditions: rabbit, in vivo
pregnant hamsters = assay: Antifertility ED50 in pregnant hamsters; assay type: in vivo, hamster; conditions: for ED50: Mesocricetus auratus
Method: (§3) Said compositions are administered to pregnant Lakeview hamsters arriving at day 1 postcoitus, which are maintained in a day-night reversed room (11 A.M. to 11 P.M.). Food and water is given ad libitum. Six hamsters per group are used (3 per cage) and each test is carried out with a control group receiving said excipients only. The orally administered AGT is given for 3 consecutive days starting on day 3 postcoitus, at a rate of 5 ml/kg body weight, and these animals are sacrificed on day 10 to 12 postcoitus. The subcutaneously administered TPF is given once on day 5 postcoitus only, at a volume of 0.2 ml per animal, and these animals are sacrificed on day 8 postcoitus. The uterus of each animal is inspected and implantation sites are counted and recorded according to viable or resorbed fetuses. Percent inhibition is determined by comparison of treated groups over the control group.

rats = assay: Activity of TPF in rats; conditions: rat, in vivo
[4] = test system: pregnant Lakeview hamsters; assay: Antifertility effect (percent of litter living) in pregnant hamsters, AGT p.o. and TPF s.c.; assay type: in vivo, hamster
Method: Said active ingredients are administered in admixture with the following excipients:
AGT + 3% corn starch + 5% polyethylene glycol 400 + 1 drop of polysorbate 80 per 10 ml of distilled water.
TPF 10 mg per 0.1 ml of ethanol, which solution is diluted with the buffer prepared from 19 ml of 0.2M aqueous monosodium phosphate and 81 ml of 0.2M aqueous disodium phosphate, corrected with the latter to the pH = 7.4.
as §3

[5] = test system: conversion of cholesterol to pregnenolone; conditions: background; cited from earlier work
progesterone secretion = conditions: pregnant and non-pregnant animals and human beings, background; cited from earlier work
[6] = 100 mg/kg × 3 on day 9, i.p., 10 rats
[7] = 100 mg/kg × 3 on day 9, i.v., 3 rats
[8] = 100 mg/kg × 3 on day 9, p.o., 5 rats
[9] = sc, pregnant hamsters, approximative, read-out: ED50 s.c. for antifertility effects

In the case of `CCCCC[C@H](O)/C=C/[C@H]1[C@H](O)CC(=O)[C@@H]1CCCCCCC(=O)O` [PGE1], the Fetuses (pregnant rats [1]; 200 μg/rat s.c. × 2 daily) is reported as 10.8 ± 2.7, the Resorptions (pregnant rats [1]; 200 μg/rat s.c. × 2 daily) is reported as 0 and the “Total Implants” value (pregnant rats [1]; 200 μg/rat s.c. × 2 daily) is reported as 10.8 ± 2.7. For the same compound, the Fetuses (pregnant rats [1]; 400 μg/rat s.c. × 2 daily) was 10.6 ± 2.7, the Resorptions (pregnant rats [1]; 400 μg/rat s.c. × 2 daily) was 0 and the “Total Implants” value (pregnant rats [1]; 400 μg/rat s.c. × 2 daily) was 10.6 ± 2.7. The Fetuses (pregnant rats [1]; 800 μg/rat s.c. × 2 daily) was 0, the Resorptions (pregnant rats [1]; 800 μg/rat s.c. × 2 daily) was 7.0 ± 1.9 and the “Total Implants” value (pregnant rats [1]; 800 μg/rat s.c. × 2 daily) was 7.0 ± 1.9.
In the case of `CCC1(c2ccc(N)cc2)CCC(=O)NC1=O` (stereo not shown) [AGP, aminoglutethimide phosphate], the “resorption of fetuses in rats” value (pregnant rats [2]; AGP 30 mg/kg s.c. days 3-5 of pregnancy) is reported as “did not induce resorption of fetuses”, the Fetuses (pregnant rats [2]; AGP 30 mg/kg s.c., days 3-5) is reported as 12.2 ± 1.8 and the Resorptions (pregnant rats [2]; AGP 30 mg/kg s.c., days 3-5) is reported as 1.6 ± 1.1. The “Total Implants” value (pregnant rats [2]; AGP 30 mg/kg s.c., days 3-5) was 13.8 ± 1.0, the Fetuses (pregnant rats [3]; [6]) was 4.4 ± 2.2 and the Resorptions (pregnant rats [3]; [6]) was 8.9 ± 2.0. The “Total Implants” value (pregnant rats [3]; [6]) was 13.3 ± 0.6, the Fetuses (pregnant rats [3]; [7]) was 4.3 ± 4.3 and the Resorptions (pregnant rats [3]; [7]) was 10.3 ± 4.7. The “Total Implants” value (pregnant rats [3]; [7]) was 14.7 ± 0.7, the Fetuses (pregnant rats [3]; [8]) was 13.8 ± 0.9 and the Resorptions (pregnant rats [3]; [8]) was 0.4 ± 0.4. For the same compound, the “Total Implants” value (pregnant rats [3]; [8]) was 14.2 ± 0.7, the “abortifacient on day 9” value (pregnant rats [3]; given every 8 hours, i.v. versus p.o., rats) was “abortifacient on day 9 when given every 8 hours i.v., but not p.o” and the abortifacient activity (pregnant rats [3]; large single or daily oral doses, rats) was “very resistant to the abortifacient activity”. For the same compound, the “decrease of progesterone levels” value (progesterone levels) was “more than 70%”.
In the case of `O=C(O)CCCCCCC1OCC(O)C1/C=C/C(O)COc1cccc(C(F)(F)F)c1` (stereo not drawn) [TPF, 7-[3α-(3β-hydroxy-4-(m-trifluoromethylphenoxy)-1-trans-butenyl)-4β-hydroxy-tetrahydro-2β-furyl]-heptanoic acid], the activity in rabbits (rabbits) is reported as “active in rats and rabbits”, the “oral potency relative to PGF2α” value (pregnant hamsters; oral, more potent than PGF2α) is reported as 10-20 times and the oral antifertility effectiveness (pregnant hamsters; oral, pregnant hamsters) is reported as “orally effective”. The “ED50 oral for antifertility effects” value (pregnant hamsters; oral, pregnant hamsters, approximative) was 0.31 mg/kg, the “ED50 s.c. for antifertility effects” value (pregnant hamsters; s.c., pregnant hamsters, approximative) was 0.1 mg/kg and the activity in rats (rats) was “active in rats”. For the same compound, the “effective as antifertility agent” value ([4]; 25 μg/animal/s.c.) was 64%, the “PERCENT OF LITTER LIVING” value ([4]; TPF 5 μg s.c. day 5, AGT 0 mg) was 98% and the “PERCENT OF LITTER LIVING” value ([4]; TPF 10 μg s.c. day 5, AGT 0 mg) was 70%. The “PERCENT OF LITTER LIVING” value ([4]; TPF 25 μg s.c. day 5, AGT 0 mg) was 36%.
For `CC[C@]1(c2ccc(N)cc2)CCC(=O)NC1=O.CC[C@]1(c2ccc(N)cc2)CCC(=O)NC1=O.O.O=C(O)C(O)C(O)C(=O)O.O=C(O)C(O)C(O)C(=O)O` [AGT, d-aminoglutethimide d-tartrate hemihydrate], the “effective as antifertility agent” value ([4]; 500 mg/kg/p.o.) was 100%, the “PERCENT OF LITTER LIVING” value ([4]; AGT 100 mg/kg p.o. day 3-5, TPF 0) was 90% and the “PERCENT OF LITTER LIVING” value ([4]; AGT 250 mg/kg p.o. day 3-5, TPF 0) was 68%. For the same compound, the “PERCENT OF LITTER LIVING” value ([4]; AGT 500 mg/kg p.o. day 3-5, TPF 0) was 0%.
For `CCCCC[C@H](O)/C=C/[C@@H]1[C@@H](C/C=C\CCCC(=O)O)[C@@H](O)C[C@H]1O` [PGF2α, prostaglandin F2α], the “resorption of fetuses in rats” value (pregnant rats [2]; PGF2α 1 mg/kg s.c. on day 5 of pregnancy) was “did not induce resorption of fetuses”, the Fetuses (pregnant rats [2]; PGF2α 1 mg/kg s.c., day 5) was 15.4 ± 0.6 and the Resorptions (pregnant rats [2]; PGF2α 1 mg/kg s.c., day 5) was 0. For the same compound, the “Total Implants” value (pregnant rats [2]; PGF2α 1 mg/kg s.c., day 5) was 15.4 ± 0.6, the ED50 (pregnant hamsters; [9]) was 0.1 mg/kg and the ED50 (pregnant hamsters; oral, pregnant hamsters, approximative, read-out: ED50 oral for antifertility effects) was 7.5 mg/kg. For the same compound, the Fetuses (pregnant rats [1]; 100 μg/rat s.c. × 2 daily) was 14.2 ± 0.7, the Resorptions (pregnant rats [1]; 100 μg/rat s.c. × 2 daily) was 0 and the “Total Implants” value (pregnant rats [1]; 100 μg/rat s.c. × 2 daily) was 14.2 ± 0.7. For the same compound, the Fetuses (pregnant rats [1]; 200 μg/rat s.c. × 2 daily) was 14.4 ± 0.2, the Resorptions (pregnant rats [1]; 200 μg/rat s.c. × 2 daily) was 0.2 ± 0.2 and the “Total Implants” value (pregnant rats [1]; 200 μg/rat s.c. × 2 daily) was 14.6 ± 0.2. For the same compound, the Fetuses (pregnant rats [1]; 400 μg/rat s.c. × 2 daily) was 0, the Resorptions (pregnant rats [1]; 400 μg/rat s.c. × 2 daily) was 9.6 ± 2.6 and the “Total Implants” value (pregnant rats [1]; 400 μg/rat s.c. × 2 daily) was 9.6 ± 2.6. For the same compound, the “relative activity versus PGE1 and PGE2” value (pregnant rats [1]; s.c. twice daily, days 4-7, rats) was “about twice as active as PGE1 and PGE2”.
`CCCCC[C@H](O)/C=C/[C@H]1[C@H](O)CC(=O)[C@@H]1C/C=C\CCCC(=O)O` [PGE2] gave an ED50 (pregnant hamsters; [9]) of 2 mg/kg, a Fetuses (pregnant rats [1]; 200 μg/rat s.c. × 2 daily) of 10.6 ± 2.8 and a Resorptions (pregnant rats [1]; 200 μg/rat s.c. × 2 daily) of 0. For the same compound, the “Total Implants” value (pregnant rats [1]; 200 μg/rat s.c. × 2 daily) was 10.6 ± 2.8, the Fetuses (pregnant rats [1]; 400 μg/rat s.c. × 2 daily) was 6.6 ± 2.8 and the Resorptions (pregnant rats [1]; 400 μg/rat s.c. × 2 daily) was 0. For the same compound, the “Total Implants” value (pregnant rats [1]; 400 μg/rat s.c. × 2 daily) was 6.6 ± 2.8, the Fetuses (pregnant rats [1]; 800 μg/rat s.c. × 2 daily) was 0 and the Resorptions (pregnant rats [1]; 800 μg/rat s.c. × 2 daily) was 5.6 ± 2.6. The “Total Implants” value (pregnant rats [1]; 800 μg/rat s.c. × 2 daily) was 5.6 ± 2.6.
For `CCC1(c2ccc(N)cc2)CCC(=O)NC1=O` (stereo not shown) [aminoglutethimide], the “conversion of cholesterol to pregnenolone in the steroid pathway” value [5] is given as “blocks the conversion of cholesterol to pregnenolone” and the progesterone secretion (progesterone secretion) is given as “inhibits progesterone secretion”.
